The results in this text go back to ChEMBL document CHEMBL5331110, “Eyes on Topical Ocular Disposition: The Considered Design of a Lead Janus Kinase (JAK) Inhibitor That Utilizes a Unique Azetidin-3-Amino Bridging Scaffold to Attenuate Off-Target Kinase Activity, While Driving Potency and Aqueous Solubility” (J Med Chem, 2023).

Series [1] addresses Non-receptor tyrosine-protein kinase TYK2 (Homo sapiens, UniProt P29597).
Description: Inhibition of TYK2 (unknown origin) incubated for 45 to 120 mins in presence of ATP by Kinase-Glo luminescent assay
Series [2] deals with Tyrosine-protein kinase JAK1 (Homo sapiens, UniProt P23458). The series can be described thus: Inhibition of JAK1 (unknown origin) incubated for 45 to 120 mins in presence of ATP by Kinase-Glo luminescent assay.
Chain of Tyrosine-protein kinase JAK1 (P23458 whole entry): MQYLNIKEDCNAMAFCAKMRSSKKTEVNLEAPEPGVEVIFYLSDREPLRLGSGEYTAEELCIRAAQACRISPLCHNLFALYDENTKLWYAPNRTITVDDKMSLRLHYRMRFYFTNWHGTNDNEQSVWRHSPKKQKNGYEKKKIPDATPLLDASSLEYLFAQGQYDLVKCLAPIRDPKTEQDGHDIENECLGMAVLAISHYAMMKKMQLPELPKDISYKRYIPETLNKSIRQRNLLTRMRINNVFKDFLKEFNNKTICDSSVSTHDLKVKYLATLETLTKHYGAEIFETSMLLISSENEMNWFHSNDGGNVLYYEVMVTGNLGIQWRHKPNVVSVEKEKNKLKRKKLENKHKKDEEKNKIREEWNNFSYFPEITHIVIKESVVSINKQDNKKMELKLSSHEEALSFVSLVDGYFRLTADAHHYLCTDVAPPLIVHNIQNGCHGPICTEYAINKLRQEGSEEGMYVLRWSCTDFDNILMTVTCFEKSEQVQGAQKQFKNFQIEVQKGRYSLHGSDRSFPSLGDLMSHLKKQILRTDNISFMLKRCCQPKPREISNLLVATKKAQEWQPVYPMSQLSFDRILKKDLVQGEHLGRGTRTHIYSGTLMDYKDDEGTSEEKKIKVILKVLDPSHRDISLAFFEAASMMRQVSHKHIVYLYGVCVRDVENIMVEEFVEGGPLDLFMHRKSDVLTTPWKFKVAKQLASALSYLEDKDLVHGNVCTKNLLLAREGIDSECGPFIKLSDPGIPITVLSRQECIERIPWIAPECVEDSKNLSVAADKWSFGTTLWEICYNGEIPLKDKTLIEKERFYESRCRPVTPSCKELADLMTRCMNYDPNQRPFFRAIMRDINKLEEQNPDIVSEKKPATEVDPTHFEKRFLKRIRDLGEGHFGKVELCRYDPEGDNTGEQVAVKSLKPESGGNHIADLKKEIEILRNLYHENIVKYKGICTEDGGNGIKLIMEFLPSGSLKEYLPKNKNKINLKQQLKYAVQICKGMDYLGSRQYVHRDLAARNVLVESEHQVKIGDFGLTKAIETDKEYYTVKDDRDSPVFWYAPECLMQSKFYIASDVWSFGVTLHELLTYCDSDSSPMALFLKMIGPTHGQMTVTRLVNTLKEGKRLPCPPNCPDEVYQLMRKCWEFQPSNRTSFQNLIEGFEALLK
In series [3] the target is Tyrosine-protein kinase ABL1 (Homo sapiens, UniProt P00519).
Chain of Tyrosine-protein kinase ABL1 (P00519 whole entry): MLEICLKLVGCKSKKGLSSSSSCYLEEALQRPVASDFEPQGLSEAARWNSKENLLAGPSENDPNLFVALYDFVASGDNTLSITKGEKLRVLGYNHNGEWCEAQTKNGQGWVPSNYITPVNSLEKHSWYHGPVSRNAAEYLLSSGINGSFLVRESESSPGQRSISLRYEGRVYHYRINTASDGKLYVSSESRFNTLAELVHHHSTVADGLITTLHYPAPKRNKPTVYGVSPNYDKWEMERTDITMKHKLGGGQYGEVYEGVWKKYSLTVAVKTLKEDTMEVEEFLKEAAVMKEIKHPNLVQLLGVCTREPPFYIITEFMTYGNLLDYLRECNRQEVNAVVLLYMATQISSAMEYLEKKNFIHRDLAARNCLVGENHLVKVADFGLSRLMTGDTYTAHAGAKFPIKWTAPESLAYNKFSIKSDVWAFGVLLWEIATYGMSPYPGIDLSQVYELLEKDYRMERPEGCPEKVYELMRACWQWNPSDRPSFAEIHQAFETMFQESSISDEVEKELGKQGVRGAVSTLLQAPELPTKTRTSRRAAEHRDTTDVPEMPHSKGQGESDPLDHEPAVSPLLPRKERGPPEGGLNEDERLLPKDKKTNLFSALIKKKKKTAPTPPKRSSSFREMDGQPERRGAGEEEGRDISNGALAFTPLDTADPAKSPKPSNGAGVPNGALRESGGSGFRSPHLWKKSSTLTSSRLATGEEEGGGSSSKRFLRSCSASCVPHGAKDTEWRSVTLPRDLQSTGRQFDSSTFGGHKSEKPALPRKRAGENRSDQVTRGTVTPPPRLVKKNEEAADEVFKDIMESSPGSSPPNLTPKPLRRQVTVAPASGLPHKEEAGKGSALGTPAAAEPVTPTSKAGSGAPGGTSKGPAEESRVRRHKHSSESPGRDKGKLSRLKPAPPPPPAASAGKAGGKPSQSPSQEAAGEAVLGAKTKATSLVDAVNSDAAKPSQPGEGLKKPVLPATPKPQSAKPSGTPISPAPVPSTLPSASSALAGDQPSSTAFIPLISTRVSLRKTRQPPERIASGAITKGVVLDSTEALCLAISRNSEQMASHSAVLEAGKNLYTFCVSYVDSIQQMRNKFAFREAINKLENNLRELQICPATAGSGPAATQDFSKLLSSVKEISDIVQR
Description: Inhibition of ABL1 (unknown origin) incubated for 45 to 120 mins in presence of ATP by Kinase-Glo luminescent assay
Series [4] deals with Glycogen synthase kinase-3 beta (Homo sapiens, UniProt P49841).
Chain of Glycogen synthase kinase-3 beta (P49841 whole entry): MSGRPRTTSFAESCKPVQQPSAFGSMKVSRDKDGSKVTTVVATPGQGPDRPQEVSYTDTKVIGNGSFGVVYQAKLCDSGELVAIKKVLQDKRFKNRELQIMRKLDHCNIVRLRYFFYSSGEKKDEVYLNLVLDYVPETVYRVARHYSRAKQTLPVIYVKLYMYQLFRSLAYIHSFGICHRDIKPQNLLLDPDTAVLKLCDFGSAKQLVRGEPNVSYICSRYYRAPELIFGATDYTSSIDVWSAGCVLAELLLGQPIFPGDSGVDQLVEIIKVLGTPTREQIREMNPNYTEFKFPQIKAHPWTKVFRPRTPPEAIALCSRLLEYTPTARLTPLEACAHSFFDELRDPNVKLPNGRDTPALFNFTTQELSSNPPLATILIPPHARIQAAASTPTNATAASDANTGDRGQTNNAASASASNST
Description: Inhibition of GSK3B (unknown origin) incubated for 45 to 120 mins in presence of ATP by Kinase-Glo luminescent assay
The target of a further series is Aurora kinase B (Homo sapiens, UniProt Q96GD4).
Chain of Aurora kinase B (Q96GD4 whole entry): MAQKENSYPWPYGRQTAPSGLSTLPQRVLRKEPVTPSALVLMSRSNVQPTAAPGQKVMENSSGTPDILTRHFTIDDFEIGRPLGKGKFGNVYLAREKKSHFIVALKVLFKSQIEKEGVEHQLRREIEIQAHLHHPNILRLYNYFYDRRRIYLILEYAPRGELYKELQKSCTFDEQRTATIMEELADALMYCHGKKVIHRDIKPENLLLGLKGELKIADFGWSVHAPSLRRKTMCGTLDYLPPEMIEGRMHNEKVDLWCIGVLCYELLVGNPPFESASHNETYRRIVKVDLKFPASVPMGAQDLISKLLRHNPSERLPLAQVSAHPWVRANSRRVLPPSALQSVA
Series [5] concerns the target Tyrosine-protein kinase JAK2 (Homo sapiens, UniProt O60674).
Description: Inhibition of JAK2 (unknown origin) incubated for 45 to 120 mins in presence of ATP by Kinase-Glo luminescent assay
For series [6], the target named is T1, Tyrosine-protein kinase JAK3 (Homo sapiens, UniProt P52333).
T1 sequence (P52333 whole entry): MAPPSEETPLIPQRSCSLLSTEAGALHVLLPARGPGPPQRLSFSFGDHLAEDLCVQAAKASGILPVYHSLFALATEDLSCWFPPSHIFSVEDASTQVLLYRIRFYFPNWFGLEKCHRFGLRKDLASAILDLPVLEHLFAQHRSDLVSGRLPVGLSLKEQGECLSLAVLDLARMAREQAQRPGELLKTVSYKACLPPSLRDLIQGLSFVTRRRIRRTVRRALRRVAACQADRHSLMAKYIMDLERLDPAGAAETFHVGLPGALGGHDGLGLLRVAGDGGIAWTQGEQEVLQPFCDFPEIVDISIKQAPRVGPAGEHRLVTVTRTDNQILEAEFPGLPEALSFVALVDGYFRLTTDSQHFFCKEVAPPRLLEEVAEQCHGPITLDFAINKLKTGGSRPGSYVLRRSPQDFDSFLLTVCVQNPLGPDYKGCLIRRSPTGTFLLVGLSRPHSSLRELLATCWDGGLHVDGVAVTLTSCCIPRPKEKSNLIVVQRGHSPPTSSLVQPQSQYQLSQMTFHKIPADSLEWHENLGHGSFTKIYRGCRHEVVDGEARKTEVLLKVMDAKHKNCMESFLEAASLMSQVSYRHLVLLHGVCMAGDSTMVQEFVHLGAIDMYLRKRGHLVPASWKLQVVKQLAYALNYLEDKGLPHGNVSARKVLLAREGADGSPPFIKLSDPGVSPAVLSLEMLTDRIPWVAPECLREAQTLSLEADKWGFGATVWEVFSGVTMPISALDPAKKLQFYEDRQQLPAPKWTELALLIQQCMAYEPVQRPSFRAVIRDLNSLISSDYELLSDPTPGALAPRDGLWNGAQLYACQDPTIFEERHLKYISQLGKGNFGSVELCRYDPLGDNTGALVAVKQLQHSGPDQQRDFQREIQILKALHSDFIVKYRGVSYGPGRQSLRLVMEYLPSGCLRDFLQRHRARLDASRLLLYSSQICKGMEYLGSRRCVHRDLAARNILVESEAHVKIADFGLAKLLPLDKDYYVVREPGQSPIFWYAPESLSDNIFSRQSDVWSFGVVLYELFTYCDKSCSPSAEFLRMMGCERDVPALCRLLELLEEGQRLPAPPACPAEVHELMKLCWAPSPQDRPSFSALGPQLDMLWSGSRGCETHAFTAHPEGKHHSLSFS
Description: Inhibition of JAK3 (unknown origin) incubated for 45 to 120 mins in presence of ATP by Kinase-Glo luminescent assay

Series [7] in a line: Intrinsic aqueous solubility of the compound in citrate buffer at pH 6 by HPLC-UV/MS analysis.
Series [8] can be described thus: Dissociation constant, pKa of the compound by potentiometric titration method.
Series [9] concerns the target Vascular endothelial growth factor receptor 2 (Homo sapiens, UniProt P35968).
Description: Inhibition of KDR (unknown origin) incubated for 45 to 120 mins in presence of ATP by Kinase-Glo luminescent assay

Molecules are shown by their SMILES. In brackets after ≈: the same amount, converted by molar mass.

Chain of Non-receptor tyrosine-protein kinase TYK2 (P29597 whole entry): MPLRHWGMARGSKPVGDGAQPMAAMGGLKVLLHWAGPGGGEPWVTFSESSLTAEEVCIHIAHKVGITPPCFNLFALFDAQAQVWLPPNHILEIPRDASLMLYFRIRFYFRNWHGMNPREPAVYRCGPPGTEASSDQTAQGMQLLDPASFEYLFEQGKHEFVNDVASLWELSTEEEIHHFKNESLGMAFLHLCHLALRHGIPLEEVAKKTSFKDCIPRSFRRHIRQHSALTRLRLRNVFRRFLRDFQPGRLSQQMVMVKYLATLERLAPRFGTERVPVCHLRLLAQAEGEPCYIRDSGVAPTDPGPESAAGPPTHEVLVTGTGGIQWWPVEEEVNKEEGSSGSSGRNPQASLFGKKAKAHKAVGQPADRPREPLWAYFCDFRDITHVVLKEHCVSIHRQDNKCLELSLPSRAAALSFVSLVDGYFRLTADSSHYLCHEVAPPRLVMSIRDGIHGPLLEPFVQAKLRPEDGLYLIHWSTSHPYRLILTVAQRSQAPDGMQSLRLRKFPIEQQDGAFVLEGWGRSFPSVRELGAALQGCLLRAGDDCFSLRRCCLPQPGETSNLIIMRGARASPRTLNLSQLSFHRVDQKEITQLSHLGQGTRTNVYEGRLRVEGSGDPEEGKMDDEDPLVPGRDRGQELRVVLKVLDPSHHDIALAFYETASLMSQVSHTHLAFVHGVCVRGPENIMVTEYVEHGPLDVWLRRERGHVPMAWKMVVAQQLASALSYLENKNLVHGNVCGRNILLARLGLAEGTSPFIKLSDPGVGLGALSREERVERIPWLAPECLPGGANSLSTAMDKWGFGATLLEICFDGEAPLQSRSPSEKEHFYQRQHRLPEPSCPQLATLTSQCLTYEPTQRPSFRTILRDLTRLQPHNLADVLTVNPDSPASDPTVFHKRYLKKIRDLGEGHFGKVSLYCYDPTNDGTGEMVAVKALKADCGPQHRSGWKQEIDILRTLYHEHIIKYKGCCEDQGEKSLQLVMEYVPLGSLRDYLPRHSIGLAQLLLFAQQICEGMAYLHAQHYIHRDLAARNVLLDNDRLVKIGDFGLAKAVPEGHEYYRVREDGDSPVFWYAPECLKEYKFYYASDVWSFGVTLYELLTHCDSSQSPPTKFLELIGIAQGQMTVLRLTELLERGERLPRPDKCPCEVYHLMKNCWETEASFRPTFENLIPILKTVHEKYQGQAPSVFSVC
Description for Aurora kinase B: Inhibition of AURKB (unknown origin) incubated for 45 to 120 mins in presence of ATP by Kinase-Glo luminescent assay

Consider `Cc1cc(Nc2cc(-c3cnn(CCC#N)c3)c(Cl)cn2)sn1`, for which the IC50 in series [1] and in series [2] was 50000 nM throughout.
For `Cc1cnc(Nc2cnn(C)c2)nc1-c1cnn([C@H](CC#N)C2CCCC2)c1`, the half-maximal inhibitory concentration (IC50) in [3] stood at 351 nM; in [1], 0.98 nM; in series [4], 395 nM; on Aurora kinase B it was 7 nM; in series [5] it was 0.98 nM; in series [2], 0.99 nM. For the same molecule, it took 3.4 nM to reach half-maximal inhibition in series [6] (IC50).
Regarding `Cc1cc(Nc2ncc(C)c(N3CC(CC#N)(N4CCN(C)CC4)C3)n2)sn1`, the concentration for half-maximal inhibition (IC50) in [3] was found to be 21400 nM; in [1] it was 2.9 nM; against Aurora kinase B, 441 nM; in [6], 70 nM.
As to `Cc1cnc(Nc2ccc(N3CCOCC3)cc2)nc1-c1cnn(CCC#N)c1`, the IC50 in series [1] amounted to 2 nM; in series [5] it was 2 nM; in series [2] it was 15 nM; in series [6] it was 18 nM. Moreover, the concentration in solution in [7] (solubility) was 13 µM (≈ 5.06 µg/mL). Moreover, in series [8], the pKa stood at 4.2.
Turning to `Cc1cc(Nc2ncc(C)c(N3CCN(CC#N)CC3)n2)sn1`, the IC50 in series [3] turned out to be 467 nM; in [9], 41 nM; in series [4] it was 1620 nM; at Aurora kinase B, 1.5 nM; in series [5] it was 3.4 nM. The solubility in series [7] was found to be 7 µM (≈ 2.31 µg/mL).
On to `Cc1cc(Nc2ncc(C)c(N3CC4CCC(C3)N4CC#N)n2)sn1`, for which the IC50 turned out to be 1310 nM in series [3]; 221 nM in series [9]; 1680 nM in [4]; 4 nM at Aurora kinase B; 3.9 nM in series [5]. The amount in solution in series [7] (solubility) came to 11 µM (≈ 3.91 µg/mL).
As for `Cc1cc(Nc2ncc(C)c(N3CC(C4CC4)C3)n2)sn1`, the IC50 against Aurora kinase B was 21 nM; in series [5], 3.4 nM.
Turning to `Cc1cc(Nc2ncc(C)c(N3CC4CCCC(C3)N4CCC#N)n2)sn1`, the IC50 in series [3] came to 537 nM; in series [9] it was 109 nM; in series [4], 565 nM; at Aurora kinase B, 2.5 nM; in series [5], 0.98 nM. The same molecule displayed a solubility in series [7] of 11 µM (≈ 4.22 µg/mL).
For `Cc1cc(Nc2ncc(C)c(N3CC4CCC(C3)N4CCC#N)n2)sn1`, the IC50 in series [9] was 96 nM; in series [4], 311 nM; against Aurora kinase B, 1.5 nM; in [5], 0.98 nM.
As for `Cc1cc(Nc2ncc(C)c(N3CC4CCCC(C3)N4CC#N)n2)sn1`, the half-maximal inhibitory concentration (IC50) in series [3] amounted to 2030 nM; in series [9], 1580 nM; in series [4] it was 3240 nM; at Aurora kinase B, 364 nM; in [5], 5.4 nM. The concentration in solution in [7] (solubility) was 35 µM (≈ 12.9 µg/mL).
`Cc1cnc(Nc2cnn(C)c2)nc1N1CC2CCCC(C1)N2CCC#N`: the half-maximal inhibitory concentration (IC50) in [1] is 3.4 nM; in [9] it was 936 nM; in series [4], 9900 nM; against Aurora kinase B it was 19 nM; in [5] it was 3.4 nM; in [2], 2 nM. The molecule further had a half-inhibitory concentration (IC50) in series [6] of 11 nM.
In the case of `Cc1cnc(Nc2cnn(C)c2)nc1N1CC2CCCC(C1)N2CC#N`, the IC50 in series [3] was 16800 nM; in series [9] it was 7390 nM; in series [4], 36400 nM; on Aurora kinase B, 913 nM; in series [5], 61 nM. The same molecule came in with a solubility in [7] of 7090 µM (≈ 2500 µg/mL).
`Cc1cc(Nc2ncc(C)c(N3CCN(CC#N)[C@@H](C)C3)n2)sn1`: the concentration for half-maximal inhibition (IC50) is 228 nM in series [3]; 30 nM in [9]; 2200 nM in series [4]; 22 nM at Aurora kinase B; 1.5 nM in series [5]. Further, the solubility in series [7] was determined as 16 µM (≈ 5.5 µg/mL).
Consider `Cc1cc(Nc2ncc(C)c(N3CC(CC#N)C3)n2)sn1`, for which the concentration for half-maximal inhibition (IC50) stood at 6 nM against Aurora kinase B and 9 nM in [5].
Regarding `Cc1cc(Nc2ncc(C)c(-c3cnn(CCC#N)c3)n2)sn1`, the IC50 in series [3] turned out to be 207 nM; in series [1], 1.5 nM; on Aurora kinase B, 2.5 nM; in [5] it was 2 nM; in series [2] it was 3 nM; in series [6], 14 nM.
Take `Cc1cc(Nc2ncc(Cl)c(-c3cnn(CCC#N)c3)n2)sn1`: the results for the IC50 in series [1] and in series [2] were 1.5 nM and 3 nM, respectively.
Consider `Cc1cnc(Nc2cnn(C)c2)nc1N1CC(CC#N)(N2CCN(C)CC2)C1`, for which the concentration for half-maximal inhibition (IC50) in series [3] came to 50000 nM; on Aurora kinase B it was 764 nM; in series [5] it was 34 nM.
`Cc1cc(Nc2ncc(C)c(N3CCN(CC#N)C(C)C3)n2)sn1` (stereo not given): the half-maximal inhibitory concentration (IC50) in [3] stood at 1240 nM; in series [9], 55 nM; in series [4] it was 1360 nM; against Aurora kinase B it was 3 nM; in series [5] it was 3 nM. Moreover, in [7], the solubility came to 19 µM (≈ 6.53 µg/mL).
As for `Cc1cc(Nc2ncc(C)c(N3CC(CC#N)(N4CCCC4)C3)n2)sn1`, the IC50 against Aurora kinase B amounted to 22 nM.
As for `Cc1cnc(NC2CCOCC2)nc1-c1cnn(CCC#N)c1`, the IC50 in series [1] was determined as 50000 nM; in series [5] it was 41900 nM; in series [2] it was 50000 nM; in series [6], 50000 nM. This molecule also returned a solubility in series [7] of 390 µM (≈ 122 µg/mL).
As to `Cc1cc(Nc2ncc(C)c(N3CC(CC#N)(N4CCCCC4)C3)n2)sn1`, the IC50 worked out at 8430 nM in series [3] and 4.4 nM in [5].
For the molecule `Cc1cc(Nc2ncc(C)c(N3CC(CCC#N)C3)n2)sn1`, the IC50 was determined as 568 nM in series [3], 3 nM against Aurora kinase B and 13 nM in series [5].
For the molecule `Cc1cc(Nc2ncc(C)c(N3CC(O)(C4CC4)C3)n2)sn1`, the half-maximal inhibitory concentration (IC50) in series [3] was found to be 80 nM; at Aurora kinase B it was 0.97 nM; in series [5] it was 2.5 nM.
Consider `Cc1cc(Nc2ncc(C)c(N3CCC(CC#N)CC3)n2)sn1`, for which, on Aurora kinase B, the half-inhibitory concentration (IC50) is 1.1 nM.
Turning to `Cc1cnc(NCCN2CCOCC2)nc1-c1cnn(CCC#N)c1`, the IC50 stood at 19500 nM in series [5], 50000 nM in series [2] and 50000 nM in [6].
For the molecule `Cc1cnc(Nc2ccc(N3CCN(C)CC3)cc2)nc1-c1cnn(CCC#N)c1`, the 50% inhibitory concentration (IC50) came out at 2 nM in series [1], 2 nM in series [5], 13 nM in [2] and 16 nM in series [6]. In series [7], this molecule registered a solubility of 33500 µM (≈ 13500 µg/mL).
As for `Cc1cc(Nc2ncc(C)c(N3CC(CC#N)(OC4CC5(CC5)C4)C3)n2)sn1`, the figures for the IC50 (in series [3]; on Aurora kinase B; in series [5]) were 10300 nM, 187 nM and 8 nM, respectively.
As for `Cn1cc(Nc2nccc(-c3cnn(CCC#N)c3)n2)cn1`, the IC50 was 49 nM in series [1], 27 nM in [5] and 538 nM in [2].
Take `Cc1cnc(Nc2cnn(C)c2)nc1-c1cnn(CCC#N)c1`: the IC50 in series [1] worked out at 3.4 nM; in series [2], 12 nM; in series [6], 55 nM. Further, the solubility in series [7] was 69 µM (≈ 21.3 µg/mL).
As to `Cc1cnc(Nc2ccccc2)nc1-c1cnn(CCC#N)c1`, the concentration for half-maximal inhibition (IC50) worked out at 11 nM in series [1], 6 nM in [5], 50 nM in series [2] and 143 nM in series [6]. In series [7], this molecule yielded a solubility of 52 µM (≈ 15.8 µg/mL).

What is called IC50 is the concentration that inhibits the measured activity by half. Broadly, the solubility is the dissolved amount per volume that the medium holds. A lower solubility goes with a poorly soluble substance. One may read the pKa as the pH at which an ionisable group is half protonated. Read a low pKa as a group that gives up its proton readily.
